In article PMC5640650, “NatD promotes lung cancer progression by preventing histone H4 serine phosphorylation to activate Slug expression” (Nature Communications, 2017):

Columns and labels:
Format in all cases: cell-based, human
Slug promoter [1] = test: ChIP assay on the Slug promoter, H1299 cells; conditions: vs Scr
Text: Fig. 6 Nt-acetylation of histone H4 antagonizes phosphorylation of histone H4 serine 1 to regulate Slug expression. a Western blot analysis of indicated histone H4 modifications in Scr and NatD-KD H1299 cells. Histone H4 served as a loading control. b ChIP analysis of the enrichment of indicated histone H4 modifications on the Slug promoter in Scr and NatD-KD H1299 cells. IgG served as a negative control. Results are shown as mean ± s.d. from three independent experiments; two-tailed Student’s t-test, *P < 0.05, **P < 0.01 compared with the Scr control. c ChIP analysis of the enrichment of H3K4me3 and H3K27me3 on the Slug promoter in Scr and NatD-KD H1299 cells. IgG served as a negative control. Results are shown as mean ± s.d. from three independent experiments; two-tailed Student’s t-test, **P < 0.01 compared with the Scr control. d Western blot analysis of indicated proteins from H1299 cells overexpressing NatDΔ or wild-type NatD. Histone H4 served as a loading control. e ChIP analysis of the enrichment of Nt-ac-H4 and H4S1ph on Slug promoter in H1299 cells overexpressing NatDΔ or wild-type NatD. IgG served as a negative control. Results are shown as mean ± s.d. from three independent experiments; two-tailed Student’s t-test, *P < 0.05, **P < 0.01 compared with the wild-type control
(§1) Fig. 7 Downregulation of Nt-acetylation of histone H4 facilitates nuclear accumulation of CK2α and its binding to histone H4 in lung cancer cells. a Representative confocal scanning images of CK2α localization in Scr and H1299 cells (left panel). The staining intensity of CK2α was quantified by software ImageJ from NIH (right diagram). Scale bars, 5 μm. […] Equal peptide biotinylated on C terminus is shown by dot blot analysis with streptavidin (middle panel). […] IgG served as a negative control. Results are shown as mean ± s.d. from three independent experiments; two-tailed Student’s t-test, **P < 0.01 compared with the indicated control. g Quantitative real-time PCR analysis of mRNA levels of CK2α and Slug normalized to GAPDH in Scr and NatD-KD H1299 cells in the absence or presence of siRNA to CK2α. NC, siRNA mimics negative control. Data are mean ± s.d. of three independent experiments; Student’s t-test, *P < 0.05, **P < 0.01 compared with the indicated control. h Western blot analysis of indicated proteins from Scr and NatD-KD H1299 cells in the absence or presence of siRNA to CK2α.
ChIP assays were performed with H1299 cells in accordance with standard protocols. Normal rabbit IgG served as the control. ChIP samples were analyzed by quantitative real-time PCR using the FastStart Universal SYBR Green Master (Roche). A standard curve was prepared for each set of primers using serial titration of the input DNA. The percentage of ChIP DNA was calculated relative to the input DNA from primer-specific standard curves using the Rotor-Gene 6000 Series Software 1.7. The primer sequences for ChIP are listed in Supplementary Table 4. Antibodies used were: H4S1ph (Abcam; ab14723), H4K5ac (Millipore; CS204381), H4R3me2a (Active Motif; 39705), H4R3me2s (Abcam; ab5823), CK2α (Abcam; ab70774), H3K4me3 (Abcam; ab8580), and H3K27me3 (Abcam; ab6002).

CK2α = CK2α localization by confocal immunofluorescence / western blot, H1299 cells; conditions: NatD knockdown H1299 cells
Text: as §1, with “Data are mean ± s.d. of three independent experiments; Student’s t-test, *P < 0.05, **P < 0.01 compared with the indicated control. h Western blot analysis of indicated proteins from Scr and NatD-KD H1299 cells in the absence or presence of siRNA to CK2α.” left out
For immunofluorescence assays, cells were fixed with 4% formaldehyde for 5 min at room temperature. […] Sub-cellular distribution of CK2α was analyzed by confocal scanning microscopy (Olympus FV10i). The relative intracellular distribution of CK2α in each experimental sample was calculated as the nuclear to total (cytoplasmic + nuclear) ratio by measuring the intensity of the signals in each cellular compartment with the aid of ImageJ software (NIH). […]

Slug promoter [2] = test: Slug promoter luciferase reporter assay, H1299 cells; conditions: 1155-bp Slug promoter in pGL3-basic, beta-galactosidase normalized
Protocol: Response to the reviewers' comments:
Q1. In relation to Query 11 where Slug promoter analyses were requested to functionally test the consequences of epigenetic changes, the authors argue “it is less […]
promoter activity in cytoplasm where functional nucleosomes (composed of histone and DNA) are not formed”. I disagree with the authors’ response since it would invalidate all promoter assays performed in many different situations in which the action of “nuclear” transcription factors is analyzed with exogenous promoters that need to be translocated to the nucleus for functional activity. Thus, although I agree that the epigenetic changes might not be easily reproduced in the exogenous promoters, the authors should made the effort to perform this requested experimental […]
We agree with the reviewer that the experiment should be performed. Therefore, we cloned a 1155-bp Slug promoter fragment [Ref: Morita T et al., J Cell Biol. 2007, 179(5): 1027-1042] into the pGL3-basic luciferase vector (sequence confirmed by DNA sequencing). The activity of Slug promoter in the different situations (control […]
NatD) were analyzed; pSV-beta-Gal plasmid expressing beta-galactosidase was used as the normalization control according to Cold Spring Harbor Protocol [Smale ST.
Beta-galactosidase assay. Cold Spring Harb Protoc 2010: pdb prot5423]. As the […]

NatD-KD2: Human NatD shRNA KD2: 5′-GGTTGAATGTCTCCATTGA-3′, lentiviral (shRNA lentiviral)
enrichment of CK2α on Slug promoter (Slug promoter [1]): significantly increased
enrichment of H3K4me3 on Slug promoter (Slug promoter [1]): significantly reduced
enrichment of H3K27me3 on Slug promoter (Slug promoter [1]): increased
enrichment of H4R3me2a and H4K5ac on Slug promoter (Slug promoter [1]): significantly reduced
enrichment of H4R3me2s on Slug promoter (Slug promoter [1]): unchanged
enrichment of H4S1ph on Slug promoter (Slug promoter [1]): significantly increased
enrichment of Nt-ac-H4 on Slug promoter (Slug promoter [1]): significantly reduced
CK2α in the cytoplasm (western blot) (CK2α): no detectable levels
CK2α localized in the nucleus (CK2α; more than 30 cells (Scr: about 70%)): ~100%
Slug promoter luciferase activity (Slug promoter [2]): no significant changes in luciferase activity
